Test results from US6984640B1, “Antiparasitic artemisinin derivatives (endoperoxides)” (Bayer Aktiengesellschaft, priority 1998, dated 2006).

Columns and labels:
[1] = tested on: Neospora; details: administered via drinking water; cited from earlier work
[2] = tested on: Plasmodium falciparum W2 strain (chloroquine resistant); test: In vitro screening against Plasmodium falciparum, 3H-hypoxanthine incorporation, W2 strain; format: cell-based; details: 66 hours incubation
Text: (§1) Two parasite strains—W2 resistant to chloroquine, and D6 sensitive to chloroquine but resistant to mefloquine were used. In Table IV below, the best compounds should show no cross resistance between the two strains.
(§2) The assay relies on incorporation of radiolabelled hypoxanthine by the parasite and inhibition of incorporation is attributed to activity of known or candidate antimalarial drugs. For each assay, proven antimalarials such as chloroquine, mefloquine, quinine, artemisinin and pyrimethamine were used as controls. The incubation period was 66 hours, and the starting parasitemia was 0.2% with 1% hematocrit. The medium was an RPMI-1640 culture with no folate or p-aminobenzoic acid. Albumax rather than 10% normal heat inactivated human plasma was used as, with Albumax, less protein binding is observed, and compounds elicit slightly higher activities in this model. If a compound was submitted with no prior knowledge of activity, it was dissolved directly in dimethyl sulphoxide (DMSO), and diluted 400 fold with complete culture medium. The unknown compound was started at a maximum concentration of 50,000 ng ml^−1 and sequentially diluted 2-fold for 11 times to give a concentration range of […]. These dilutions were performed automatically by a Biomek 1000 Liquid Handling System in 96-well microtiter plates. The diluted drugs were then transferred to test plates, 200 μl of parasitized erythrocytes were added, and incubated at 37° C. in a controlled environment of 5% CO2, 5% O2 and 90% N2. After 42 hours, 25 μl of ^3H-hypoxanthine was added, and the plates incubated for an additional 24 hours. After 66 hours, the plates were frozen at −70° C. to lyse the red cells, and then thawed and harvested onto glass fiber filter mats in a 96-well harvester. The filter mats were then counted in a scintillation counter. For each drug, the concentration response profile was determined and 50%, 90% and 10% inhibitory concentrations (IC50 IC90 and IC10) were determined by a non-linear logistic dose response analysis program.
(§3) A prescreen format can be used wherein a 3-dilution assay may be used to determine activity at high medium or low concentrations. The concentrations were selected as 50,000, 500 and 50 ng ml^−1. These were performed in duplicate on a 96-well format plate with 14 test compounds and one known (standard) compound per plate. The system was automated with a Biomek diluter for mixing and diluting the drugs, and adding drugs and parasites to a test plate. In the prescreen format, if the ANALYSIS FIELD (AP) has a “<”, then the compound was “very active” and the IC values are most likely to be below the last dilution value (in nanograms/ml), which is listed next to AF. In most cases, these compounds were run again at lower starting concentration to determine the true IC value. If the AF has a “>”, then the IC value is greater than the prescreen dilution value; thus “AF>250” means that the IC value is greater than 250 ng ml^−1 and no further screening is carried out. In such cases, values of 0.00 are entered for IC values.

[3] = tested on: Neospora caninum; test: Screening against Neospora caninum cell cultures in vitro (VERO or ED host cells); format: cell-based; design: key: 0 = no effect monolayer completely destroyed; 1 = weak effect monolayer partly destroyed, parasite clumps can be seen; 2 = full effect monolayer intact, no tachyzoites observable; T = cytotoxic cells are dead, lysed; details: microscopic evaluation 4 days after treatment
Procedure: Screening was conducted in 96-well plates (Falcon 3872). A monolayer of host cells (VERO or ED) were placed on a cell culture plate. Non-infected mono-layers of cells were cultured in two 50 ml tissue culture bottles ([…] cell culture area). The cell layer was detached with trypsin-EDTA (5 ml. Gibco 45300-019) in a CO2-culture cupboard at 37° C. After 10 minutes, most of the cells were detached. The cells were transferred with a 5 ml pipette into a 50 ml centrifuge tube (Greiner, B769331) containing about 1 ml warmed fetal calf serum. After centrifugation for 5 minutes at 1500 rpm (Varifuge 3.0, Heraeus), the liquid was removed and the cell pellet suspended in RPMI medium (100 ml, 95% RPMI 1640, 2% FCS, 1% L-glutamine, 1% sodium hydrogen carbonate, 1% penicillin/streptomycin). The cell suspension was pipetted into six 96-well plates at 150 μl per well. The coated cell culture plates were placed in an incubation cupboard at 37° C. under 5% CO2 for 24 hours. The cells were then infected with Neospora caninum tachyzoites at a concentration of 48,000 tachyzoites per well. This was followed by incubation at 37° C. under 5% CO2 for 24 hours.
The test compounds (0.5-1.5 mg) were weighed into 1.5 ml eppendorf vessels and dissolved in 1 ml dimethyl sulphoxide, corresponding to a dilution of about 1×10^−3 g ml^−1. The medium used for further dilution consisted of 87% RPMI 1640, 10% FCS, 1% L-glutamine, 1% sodium hydrogen carbonate, 1% penicillin/streptomycin. In the first screening, concentrations of […], […] and 10^−7 g ml^−1 were used. The diluted preparations were then transferred to the cell culture plates at a volume of 150 μl per well after 24 hour infection with Neospora caninum. For the first row, untreated medium was used; this row contained infected and uninfected cells as controls. The cell plate was incubated at 37° C. under 5% CO2 for 5 days. Microscopic evaluation was conducted 4 days after treatment and 5 days after infection at a magnification of 25×10 in an inverse microscope according to the following evaluation scheme.

[4] = tested on: Eimeria tenella; test: Screening against Eimeria tenella cell cultures in vitro (chick kidney cells); format: cell-based; details: day 5 post infection
Procedure: Cells from kidneys of 19 day old chicks are cultured as monolayers in 96-well plates (Falcon 3872) in a medium of Hanks lactalbumine hydrolysate, 5% fetal calf serum, 1% glutamine and 1% non-essential amino acids. After two days at 42° C. under 5% CO2, the culture was infected with excised sporozoites of Eimeria tenella at about […] per well. Test compounds were dissolved in DKSO and diluted with culture medium to a maximum end concentration of 10 μg ml^−1. The dilution steps were 1:10. On day 5 post infection, the cultures were evaluated under a microscope at 100-fold magnification and the condition of the host cells and the amount of intact schizonts and free merozoites was determined.

[5] = tested on: Plasmodium falciparum D6 strain (chloroquine sensitive); test: In vitro screening against Plasmodium falciparum, 3H-hypoxanthine incorporation, D6 strain; format: cell-based; details: 66 hours incubation
Text: as §1, §2, §3

SMILES	efficacy against neosporosis in experimentally infected mice [1]	In vitro activity: (IC10) [2]	In vitro activity: IC50 [2]	In vitro activity: IC90 [2]	Evaluation of effect against Neospora caninum ([3]; Dose 10^−6 g/ml)	Evaluation of effect against Neospora caninum ([3]; Dose 10^−7 g/ml)	Evaluation of effect against Neospora caninum ([3]; Dose 10^−8 g/ml)	Effectiveness rating against Eimeria tenella ([4]; Dose 10^−5 g/ml)	Effectiveness rating against Eimeria tenella ([4]; Dose 10^−6 g/ml)	Effectiveness rating against Eimeria tenella ([4]; Dose 10^−7 g/ml)	Effectiveness rating against Eimeria tenella ([4]; Dose 10^−8 g/ml)	In vitro activity: (IC10) [5]	In vitro activity: IC50 [5]	In vitro activity: IC90 [5]
Nc1ccc(S(=O)(=O)Nc2ncccn2)cc1 [Sulfadiazin]	effective in experimentally infected mice, only if the treatment was prophylactic													
CC1CCC2C(C)C(N3CCOCC3)OC3OC4(C)CCC1C32OO4 (centres unmarked) [Example 25]		0.07 ng/mL	0.11 ng/mL	0.17 ng/mL	1	1	0	2 (2 = active 1-6 parasites per well)	1 (1 = weakly active up to 1 intact schizont/optical field of vision)	1 (1 = weakly active up to 1 intact schizont/optical field of vision)	0 (0 = inactive >1 intact schizont/optical field of vision)	0.02 ng/mL	0.09 ng/mL	0.35 ng/mL
